For experiment [1], the system named is Mannheimia haemolytica ATCC 29702. In words: MIC by standard broth micro dilution assay (CLSI). Type of experiment: cell-based. The note with it: ATCC29702, M. haemolytica, BHIB, 37° C., 18-24 h. The procedure: (§1) The bacterial strains of Mannheimia haemolytica ATCC 29702 and Pasteurella multocida ATCC 43137 were purchased from American Type Culture Collection (ATCC) distributor CEDARLANE Corporation, Burlington, Ontario, Canada and revived according to the manufacturer's instruction. Bacteria were grown in Brain Heart Infusion broth (BHIB).
(§2) MIC of tulathromycin and gallic acid against Mannheimia haemolytica and Pasteurella multocida was determined by using standard broth micro dilution assay as outlined by CLSI (Richard S, Lynn S-M, Avery C G. Antimicrobial susceptibility testing protocols. New York: CRC Press; 2007). Strains were sub-cultured in Brain Heart Infusion Broth (BHIB), incubated at 37° C. overnight and bacterial suspension OD was adjusted with the media to 0.5 McFarland turbidity as per CLSI protocol (Approx. cell density 1.5×10^8 CFU/mL) using normal saline as control. 100 μl of broth was added to each well (including positive control wells) and then serial dilution of tulathromycin (5 to 0.04 μg/ml) and gallic acid (500 to 3.9 μg/ml) was executed. 5 μl of bacterial sample was added to all the wells except the positive control well. […] Plates were then incubated at 37° C. for 18-24 h and were subsequently read automatically by using 96 well plate reader (BIORAD iMark Microplate Reader) at 655 nm. The readings were double checked manually using the Sensititre Vizion System.

Experiment [2] concerns Pasteurella multocida ATCC 43137. In words: MIC by standard broth micro dilution assay (CLSI). Type of experiment: cell-based. To be noted: ATCC43137, P. multocida, BHIB, 37° C., 18-24 h. The method, then:
as §1, §2

The subject of the next experiment is M. haemolytica. In words: Resistance generation study. The class given is cell-based, Mannheimia haemolytica. The note with it: sub-MIC (1/2 MIC) doses, stress generation conditions. The procedure:
(§3) For the resistance generation studies, M. haemolytica and P. multocida were cultured in the presence of sub-MIC doses (1/2 MIC) of tulathromycin and gallic acid individually until they reach 1 unit OD at 565 nm. The bacterial cells were then given antibiotic stress relaxation by culturing them in BHIB till 1 OD unit of turbidity is reached at 565 nm. This first pass cycle of culturing in sub-MIC dose of tulathromycin, and relaxing in BHIB is considered as 1st generation (1G-TulathromycinA). The cycle as above was repeated to obtain 2nd and 3rd generation of bacterial cultures. Subsequently, MIC assays were performed with all the three generations of the two bacterial strains to evaluate the level of sensitivity towards tulathromycin. The experiments were repeated with gallic acid.
(§4) Bacteria were treated individually with sub-MIC dose (½ MIC) of tulathromycin and gallic acid with alternate relaxation of stress in BHIB for […] each. Each 24 hrs treatment was considered as 1 generation (24 hrs drug+24 hrs of BHIB).

Experiment [3] has as its system M. haemolytica ATCC 29702. In words: Synergy studies, checker board serial dilution. The class given is cell-based, Mannheimia haemolytica. The note with it: gallic acid alone, 3.9 μg/ml dose. The method, then:
(§5) For the drug interaction studies, gallic acid was mixed with tulathromycin to test the drug interactions between tulathromycin and gallic acid. This was done by a checker board serial dilution technique performed in 96-well polypropylene plates (as explained elsewhere, for example, in [11]). The fractional inhibitory concentration (FIC) index of the combinations of antimicrobial compounds was calculated according to the equation: FIC index=FICA+FICB=A/MICA+B/MICB where A (gallic acid) and B (Tulathromycin) are the MICs of compound A and compound B in combination. MICA and MICB are the MICs of compound A and compound B, separately, FICA and FICB are the FICs of compound A and compound B (Hal M J J Antimicrob Chemother. 1983 May; 11(5):427-33). Results (a) Antimicrobial Activity of Tulathromycin and Gallic Acid
(§6) • FICA, FICB—Fractional inhibitory concentration of drug A & B respectively. • MICA, MICB—Minimum inhibitory concentration of drug A & B respectively. • [A], [B]—Concentration of drug A & B respectively. • The FIC indexes were interpreted as follows: synergy is defined as ≤0.5; additivity is defined as 0.5<4.0; and antagonism is defined as >4. (d) Resistance Generation Study Results

Experiment [4] has as its system co-culture of M. haemolytica and P. multocida. In words: MIC against the co-culture. The class given is cell-based. The method, then:
MIC of tulathromycin, gallic acid and its combinations were determined against the co-culture of M. haemolytica and P. multocida. The overnight grown cultures of M. haemolytica and P. multocida were adjusted to 0.5 McFarland standard turbidity in BHIB, and then equal proportion of each of the cultures was added in the 96 well plates. After the addition of serially diluted drugs, the plates were incubated at 37° C. overnight and read as of above.

In a further experiment the test system is P. multocida. In words: Resistance generation study. Type of experiment: cell-based, Pasteurella multocida. To be noted: sub-MIC (1/2 MIC) doses, stress generation conditions. The method, then: as §3, §4
The next experiment has as its target arginase. The note with it: arginase inhibitor; cited from earlier work.
The next experiment concerns P. multocida ATCC 43137. In words: Synergy studies, checker board serial dilution. The class given is cell-based, Pasteurella multocida. To be noted: gallic acid alone, 3.9 μg/ml dose. The procedure: as §5, §6

Converted amounts (≈) assume the structure as drawn. “Also recorded” adds a separate entry of the source.

Turning to `O=C(O)c1cc(O)c(O)c(O)c1` [gallic acid], the values for the MIC in experiment [1], in experiment [2] and in experiment [4] were 250 µg/mL (≈ 1470 µM), 500 µg/mL (≈ 2940 µM) and 500 µg/mL, respectively. Also, the figures for the “effect of sub-MIC pre-treatment on sensitivity of the bacteria” value in the experiment on M. haemolytica and in the experiment with P. multocida were “does not affect the sensitivity; also recorded: no effect on the sensitivity” and “did not alter the sensitivity; also recorded: no effect on the sensitivity”, respectively. Further, the “maximum reduction in bacterial growth” value is 7.70% in experiment [3] and 5.33% with P. multocida ATCC 43137. The half-maximal inhibitory concentration (IC50) on arginase is 2200 nM.

The values are drawn from patent US11331330B2, “Phytochemical-antibiotic combination for the treatment of a bacterial infection” (University of Saskatchewan, priority 2018, dated 2022).
